Experimental data published in patent publication US8841312B2, “Fused pyridine, pyrimidine and triazine compounds as cell cycle inhibitors” (Amgen Inc., priority 2007, dated 2014).

biological target: Cdk4/CyclinD1 (Homo sapiens (Human), UniProt P11802); experiment: Cdk4 kinase inhibition assay with recombinant Cdk4/CyclinD1, Rb substrate, [33P]-ATP filter plate; type: biochemical; settings: 25 μM ATP, read-out: Cdk 4 IC50
Method: The Cdk4 and Cdk6 inhibitory activity of the compounds is measured with a kinase inhibition assay using recombinant Cdk4/CyclinD1 or Cdk6/CyclinD3 protein complexes. The protein substrate used in the assay is the retinoblastoma protein (Rb). The kinase reactions are carried out in a 96-well filter plate (MSDV N6B50, Millipore). […] The mixture is incubated at room temperature for 1 hour and the proteins precipitated with an equal volume of 20% TCA. The plates are washed with 10% TCA according to the manufacturer's instruction and dried at room temperature. The amount of the phosphorylated Rb is determined with a TopCount (PerkinElmer). The IC50 of a compound is determined by nonlinear regression curve fitting using software program Prism 5 (GraphPad Software).

Cdk4/CyclinD1, sequence (P11802 whole entry): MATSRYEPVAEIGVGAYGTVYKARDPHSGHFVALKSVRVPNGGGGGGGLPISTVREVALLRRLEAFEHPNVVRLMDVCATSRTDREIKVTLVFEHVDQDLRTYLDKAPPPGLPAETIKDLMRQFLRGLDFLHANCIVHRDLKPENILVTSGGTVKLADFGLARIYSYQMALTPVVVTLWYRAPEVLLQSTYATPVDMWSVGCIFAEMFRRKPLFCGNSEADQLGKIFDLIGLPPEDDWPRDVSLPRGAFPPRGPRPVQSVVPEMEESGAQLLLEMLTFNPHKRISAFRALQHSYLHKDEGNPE
Cdk4/CyclinD1, sequence (P24385 whole entry partner): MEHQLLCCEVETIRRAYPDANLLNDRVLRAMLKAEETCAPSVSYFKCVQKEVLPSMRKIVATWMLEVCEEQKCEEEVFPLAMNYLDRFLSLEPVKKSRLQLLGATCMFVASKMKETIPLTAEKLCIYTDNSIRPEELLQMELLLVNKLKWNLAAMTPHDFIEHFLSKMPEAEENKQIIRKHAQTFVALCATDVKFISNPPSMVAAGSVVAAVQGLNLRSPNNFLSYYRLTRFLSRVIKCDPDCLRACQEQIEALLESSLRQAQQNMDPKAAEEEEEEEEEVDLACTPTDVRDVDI

SMILES	IC50
O=C(c1ccc(Nc2ncc3c4ccnc(O)c4n(C4CCCC4)c3n2)nc1)N1CCNCC1 [Example 223, 9-cyclopentyl-2-((5-(1-piperazinylcarbonyl)-2-pyridinyl)amino)-9H-pyrido[4′,3′:4,5]pyrrolo[2,3-d]pyrimidin-8-ol]	13 nM
O=C(O)Cc1ccc(Nc2ncc3c4ccncc4n(C4CCCC4)c3n2)nc1 [Example 241, (6-((9-cyclopentyl-9H-pyrido[4′,3′:4,5]pyrrolo[2,3-d]pyrimidin-2-yl)amino)-3-pyridinyl)acetic acid]	177 nM
O=C(Cc1ccc(Nc2ncc3c4ccncc4n(C4CCCC4)c3n2)nc1)N1CCOCC1 [Example 244, 9-cyclopentyl-N-(5-(2-(4-morpholinyl)-2-oxoethyl)-2-pyridinyl)-9H-pyrido[4′,3′:4,5]pyrrolo[2,3-d]pyrimidin-2-amine]	11 nM
c1cc2c3cnc(Nc4ccc(N5CCNC6(CCC6)C5)nn4)nc3n(C3CCCC3)c2cn1 [Example 246, 9-cyclopentyl-N-(6-(5,8-diazaspiro[3.5]non-8-yl)-3-pyridazinyl)-9H-pyrido[4′,3′:4,5]pyrrolo[2,3-d]pyrimidin-2-amine]	70 nM
O=C1COC2(CCN(c3ccc(Nc4ncc5c6ccncc6n(C6CCCC6)c5n4)nn3)CC2)CN1 [Example 250, 9-(6-((9-cyclopentyl-9H-pyrido[4′,3′:4,5]pyrrolo[2,3-d]pyrimidin-2-yl)amino)-3-pyridazinyl)-1-oxa-4,9-diazaspiro[5.5]undecan-3-one]	16 nM
O=S1(=O)CCC(O)(c2ccc(Nc3ncc4c5ccncc5n(C5CCCC5)c4n3)nc2)CC1 [Example 263, 4-(6-((9-cyclopentyl-9H-pyrido[4′,3′:4,5]pyrrolo[2,3-d]pyrimidin-2-yl)amino)-3-pyridinyl)tetrahydro-2H-thiopyran-4-ol 1,1-dioxide]	14 nM
c1cncc(-c2ccc(Nc3ncc4c5ccncc5n(C5CCCC5)c4n3)nn2)c1 [Example 267, 9-Cyclopentyl-N-(6-(3-pyridinyl)-3-pyridazinyl)-9H-pyrido[4′,3′:4,5]pyrrolo[2,3-d]pyrimidin-2-amine]	73 nM
c1cc2c3cnc(Nc4ccc(OC5CCNCC5)nn4)nc3n(C3CCCC3)c2cn1 [Example 268, 9-Cyclopentyl-N-(6-(4-piperidinyloxy)-3-pyridazinyl)-9H-pyrido[4′,3′:4,5]pyrrolo[2,3-d]pyrimidin-2-amine]	11 nM
Fc1nccc2c3cnc(Nc4ccc(OC5CCNCC5)nn4)nc3n(C3CCCC3)c12 [Example 269, 9-Cyclopentyl-8-fluoro-N-(6-(4-piperidinyloxy)-3-pyridazinyl)-9H-pyrido[4′,3′:4,5]pyrrolo[2,3-d]pyrimidin-2-amine]	35 nM
COCC(C)(C)n1c2cnccc2c2cnc(Nc3ccc(N4CCC(N(C)C)CC4)cn3)nc21 [Example 273, N-(5-(4-(dimethylamino)-1-piperidinyl)-2-pyridinyl)-9-(2-methoxy-1,1-dimethylethyl)-9H-pyrido[4′,3′:4,5]pyrrolo[2,3-d]pyrimidin-2-amine]	19 nM
COCC(C)(C)n1c2cnccc2c2cnc(Nc3ccc(N4CCC(N(C)C)CC4)nn3)nc21 [Example 274, N-(6-(4-(dimethylamino)-1-piperidinyl)-3-pyridazinyl)-9-(2-methoxy-1,1-dimethylethyl)-9H-pyrido[4′,3′:4,5]pyrrolo[2,3-d]pyrimidin-2-amine]	1000 nM
CN(C)C1CCN(c2ccc(Nc3ncc4c5ccncc5n(C5CCSCC5)c4n3)nn2)CC1 [Example 275, N-(6-(4-(dimethylamino)-1-piperidinyl)-3-pyridazinyl)-9-(tetrahydro-2H-thiopyran-4-yl)-9H-pyrido[4′,3′:4,5]pyrrolo[2,3-d]pyrimidin-2-amine]	17 nM
CN(C)C1CCN(c2ccc(Nc3ncc4c5ccncc5n(C5CCSCC5)c4n3)nc2)CC1 [Example 276, N-(5-(4-(dimethylamino)-1-piperidinyl)-2-pyridinyl)-9-(tetrahydro-2H-thiopyran-4-yl)-9H-pyrido[4′,3′:4,5]pyrrolo[2,3-d]pyrimidin-2-amine]	96 nM
CCN(CC)C1CCN(c2ccc(Nc3ncc4c5ccnc(F)c5n(C5CCCC5)c4n3)nn2)CC1 [Example 277, 9-Cyclopentyl-N-(6-(4-(diethylamino)-1-piperidinyl)-3-pyridazinyl)-8-fluoro-9H-pyrido[4′,3′:4,5]pyrrolo[2,3-d]pyrimidin-2-amine]	18 nM
CN(C)C1CCN(c2ccc(Nc3ncc4c5ccncc5n(C5CCS(=O)(=O)CC5)c4n3)nn2)CC1 [Example 279, N-(6-(4-(dimethylamino)-1-piperidinyl)-3-pyridazinyl)-9-(1,1-dioxidotetrahydro-2H-thiopyran-4-yl)-9H-pyrido[4′,3′:4,5]pyrrolo[2,3-d]pyrimidin-2-amine]	590 nM
CN(C)C1CCN(c2ccc(Nc3ncc4c5ccncc5n(C5CCS(=O)(=O)CC5)c4n3)nc2)CC1 [Example 280, N-(5-(4-(dimethylamino)-1-piperidinyl)-2-pyridinyl)-9-(1,1-dioxidotetrahydro-2H-thiopyran-4-yl)-9H-pyrido[4′,3′:4,5]pyrrolo[2,3-d]pyrimidin-2-amine]	59 nM

More lines, in order of falling IC50, values ahead:

IC50	SMILES
11 nM	COc1nccc2c3cnc(Nc4ccc(N5CCC(N6CCCC6)CC5)cn4)nc3n(C3CCC(C)(C)CC3)c12 [Example 209, 9-(4,4-dimethylcyclohexyl)-8-methoxy-N-(5-(4-(1-pyrrolidinyl)-1-piperidinyl)-2-pyridinyl)-9H-pyrido[4′,3′:4,5]pyrrolo[2,3-d]pyrimidin-2-amine]
10 nM	COc1nccc2c3cnc(Nc4ccc(N5CCNCC5)cn4)nc3n(C3CCC(C)(C)CC3)c12 [Example 207, 9-(4,4-dimethylcyclohexyl)-8-methoxy-N-(5-(1-piperazinyl)-2-pyridinyl)-9H-pyrido[4′,3′:4,5]pyrrolo[2,3-d]pyrimidin-2-amine]
9.8 nM	CN(C)C1CCN(c2ccc(Nc3ncc4c5ccnc(O)c5n(C5CCC(C)(C)CC5)c4n3)nn2)CC1 [Example 211, 2-((6-(4-(dimethylamino)-1-piperidinyl)-3-pyridazinyl)amino)-9-(4,4-dimethylcyclohexyl)-9H-pyrido[4′,3′:4,5]pyrrolo[2,3-d]pyrimidin-8-ol]
7.4 nM	O=C(Cc1ccc(Nc2ncc3c4ccncc4n(C4CCCC4)c3n2)nc1)N1CCNCC1 [Example 245, 9-cyclopentyl-N-(5-(2-oxo-2-(1-piperazinyl)ethyl)-2-pyridinyl)-9H-pyrido[4′,3′:4,5]pyrrolo[2,3-d]pyrimidin-2-amine]
7.2 nM	c1cc2c3cnc(Nc4ccc(N5CCC6(CCCN6)CC5)nn4)nc3n(C3CCCC3)c2cn1 [Example 232, 9-cyclopentyl-N-(6-(1,8-diazaspiro[45]dec-8-yl)-3-pyridazinyl)-9H-pyrido[4′,3′:4,5]pyrrolo[2,3-d]pyrimidin-2-amine]
7 nM	CN(C)C1CCN(C(=O)Cc2ccc(Nc3ncc4c5ccncc5n(C5CCCC5)c4n3)nc2)CC1 [Example 243, 9-cyclopentyl-N-(5-(2-(4-(dimethylamino)-1-piperidinyl)-2-oxoethyl)-2-pyridinyl)-9H-pyrido[4′,3′:4,5]pyrrolo[2,3-d]pyrimidin-2-amine]
6.6 nM	CC1(C)CCC(n2c3nc(Nc4ccc(N5CCC(N6CCCC6)CC5)cn4)ncc3c3ccnc(O)c32)CC1 [Example 210, 9-(4,4-dimethylcyclohexyl)-2-((5-(4-(1-pyrrolidinyl)-1-piperidinyl)-2-pyridinyl)amino)-9H-pyrido[4′,3′:4,5]pyrrolo[2,3-d]pyrimidin-8-ol]
6 nM	O=C(c1ccc(Nc2ncc3c4ccnc(F)c4n(C4CCCC4)c3n2)nc1)N1CCNCC1 [Example 222, 9-cyclopentyl-8-fluoro-N-(5-(1-piperazinylcarbonyl)-2-pyridinyl)-9H-pyrido[4′,3′:4,5]pyrrolo[2,3-d]pyrimidin-2-amine]
4.6 nM	CCN(CC)C1CCN(c2ccc(Nc3ncc4c5ccnc(F)c5n(C5CCCC5)c4n3)nc2)CC1 [Example 278, 9-Cyclopentyl-N-(5-(4-(diethylamino)-1-piperidinyl)-2-pyridinyl)-8-fluoro-9H-pyrido[4′,3′:4,5]pyrrolo[2,3-d]pyrimidin-2-amine]
4.4 nM	c1cc2c3cnc(Nc4ccc(N5CCC6(CC5)COCCN6)nn4)nc3n(C3CCCC3)c2cn1 [Example 249, 9-cyclopentyl-N-(6-(4-oxa-1,9-diazaspiro[5.5]undec-9-yl)-3-pyridazinyl)-9H-pyrido[4′,3″:4,5]pyrrolo[2,3-d]pyrimidin-2-amine]
3.4 nM	c1cc2c3cnc(Nc4ccc(N5CCNC6(CCCC6)C5)nn4)nc3n(C3CCCC3)c2cn1 [Example 247, 9-cyclopentyl-N-(6-(6,9-diazaspiro[4.5]dec-9-yl)-3-pyridazinyl)-9H-pyrido[4′,3′:4,5]pyrrolo[2,3-d]pyrimidin-2-amine]
3.3 nM	c1cc2c3cnc(Nc4ccc(N5CCC6(CCCN6)CC5)cn4)nc3n(C3CCCC3)c2cn1 [Example 231, 9-cyclopentyl-N-(5-(1,8-diazaspiro[45]dec-8-yl)-2-pyridinyl)-9H-pyrido[4′,3′:4,5]pyrrolo[2,3-d]pyrimidin-2-amine]
3.2 nM	CN1CCOC2(CCN(c3ccc(Nc4ncc5c6ccncc6n(C6CCCC6)c5n4)nn3)CC2)C1 [Example 251, 9-cyclopentyl-N-(6-(4-methyl-1-oxa-4,9-diazaspiro[5.5]undec-9-yl)-3-pyridazinyl)-9H-pyrido[4′,3′:4,5]pyrrolo[2,3-d]pyrimidin-2-amine]
1.8 nM	CC1(C)CCC(n2c3nc(Nc4ccc(N5CCNCC5)cn4)ncc3c3ccnc(O)c32)CC1 [Example 208, 9-(4,4-dimethylcyclohexyl)-2-((5-(1-piperazinyl)-2-pyridinyl)amino)-9H-pyrido[4′,3′:4,5]pyrrolo[2,3-d]pyrimidin-8-ol]
